Drawing on patent publication US8022091B2, “Triazole derivative” (Taisho Pharmaceutical Co., Ltd., priority 2006, dated 2011), this text covers IC50 and inhibition for 50 compounds.

T1 sequence (P21453 whole entry): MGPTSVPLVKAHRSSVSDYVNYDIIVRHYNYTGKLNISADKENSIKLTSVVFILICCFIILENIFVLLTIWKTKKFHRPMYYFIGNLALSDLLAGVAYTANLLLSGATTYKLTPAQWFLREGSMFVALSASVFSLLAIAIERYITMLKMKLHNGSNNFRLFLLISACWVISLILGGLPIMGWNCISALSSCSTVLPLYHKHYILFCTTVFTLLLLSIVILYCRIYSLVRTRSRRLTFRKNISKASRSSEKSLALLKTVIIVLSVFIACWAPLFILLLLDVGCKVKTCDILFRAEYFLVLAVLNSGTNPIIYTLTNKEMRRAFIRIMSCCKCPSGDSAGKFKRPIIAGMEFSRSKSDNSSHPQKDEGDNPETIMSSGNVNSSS

The first test addresses T1, human Edg-1 (S1P1) (Homo sapiens, UniProt P21453).
T1 construct: expressed in transfected cells; host or cells: HEK-293
The test is described as follows: S1P1 binding assay: inhibition of [33P]-S1P binding to membrane fraction of HEK-293 cells transferred with the human Edg-1 (S1P1) gene. The settings on record: [33P]-S1P 0.1 nM, human Edg-1 (S1P1) HEK-293 membrane fraction, 1 h at 30° C.; read-out: IC50 (concentration at which binding in the absence of the test compound was inhibited by 50%). The procedure:
The membrane fraction was obtained by treating the cells with a solubilizing buffer (1 mM Tris/HCl, pH 7.2) for 10 minutes on ice, centrifuging at 1000×g for 5 minutes to remove insoluble fractions, and then centrifuging at 40000×g for 30 minutes at 4° C. The resulting membrane fraction was dissolved in a binding buffer (20 mM Tris-HCl, pH 7.4, 100 mM NaCl, 15 mM NaF, 2 mM deoxypyridoxine, 4 mg/mL fatty acid-free BSA), and then [^33P]-S1P (manufactured by ARC, final concentration 0.1 nM) and a DMSO solution (final concentration of the compound 10^−5M, final concentration of DMSO 0.1%) of the test compound were added. Thereafter, the mixture was stirred and then treated for one hour at 30° C. Using a harvester, the membrane fraction was harvested onto unifilter-96 GF/C filter (manufactured by Perkin Elmer), washing was carried out four times with the binding buffer, and the filter was dried. Twenty five μL Microscint 0 (manufactured by Perkin Elmer) was added, and radioactivity was measured using Top Count NXT (manufactured by Packard) to calculate the amount (A) of [^33P]-S1P bound to the membrane fraction at the time when the compound was added.
The same procedure was carried out in the absence of the test compound, and the amount (B) of [^33P]-S1P bound was calculated. Further, the same procedure was carried out in the absence of the test compound by use of HEK-293 cells to which no Edg-1 (S1P1) gene was introduced, and the background amount (C) of [^33P]-S1P bound was calculated.
Inhibition rate (%)=[1−(A−C)/(B−C)]×100
Further, concentrations (IC50) at the time when binding in the absence of the test compound was inhibited by 50% were calculated. The membrane system binding assay was carried out in the presence of test compounds with various concentrations, and the Edg-1 (S1P1) binding inhibition rates were calculated using the equation above. Then, IC50 values were calculated using Origin (Lightstone Corp.), a software for data analysis.
Consider `CCn1c(Nc2ccc(C)cc2)nnc1[C@@H](C)NS(=O)(=O)c1ccc(Cl)c(Cl)c1` [Compound 61, N-[(1R)-1-(4-Ethyl-5(4-methylphenylamino)-4H-[1,2,4]triazol-3-yl)ethyl]3,4-dichlorobenzenesulfonamide], for which the IC50 worked out at 39 nM.

The test is the same for the next values; noted with them: test compound 10 μM; inhibition of [33P]-S1P binding, membrane fraction.
One may read the inhibition as the drop in the measured response relative to a control, in per cent. Turning to `CCn1c(Oc2cccc(N3CCN(C)CC3)c2)nnc1[C@@H](C)NS(=O)(=O)c1c(C)nn(C)c1Cl` [Compound 540], the inhibition at 10 µM turned out to be 64.3%. Turning to `CCn1c(Oc2cccc(N3CCN(C)CC3)c2)nnc1[C@@H](C)NS(=O)(=O)c1ccccc1Cl` [Compound 552], the inhibition at 10 µM came to 67.2%. For the compound `CCn1c(Oc2cccc(N3CCN(C)CC3)c2)nnc1[C@@H](C)NS(=O)(=O)c1ccc(Br)cc1` [Compound 499], the inhibition at 10 µM came out at 109%. On to `CCn1c(Oc2ccc3cc[nH]c3c2)nnc1[C@@H](C)NS(=O)(=O)Cc1cccc(Cl)c1` [Compound 430], for which the inhibition at 10 µM was found to be 50%. On to `CCn1c(Oc2cccc(N3CCN(C)CC3)c2)nnc1[C@@H](C)NS(=O)(=O)c1ccc(Br)cc1OC(F)(F)F` [Compound 504], for which the inhibition at 10 µM is 53.5%.

As for `CCn1c(Oc2cccc(N3CCN(C)CC3)c2)nnc1[C@@H](C)NS(=O)(=O)CC1CCCCC1` [Compound 627], the inhibition at 10 µM turned out to be 90%. The same measure, in the same setting: then `CCn1c(Oc2cccc(N3CCN(C)CC3)c2)nnc1[C@@H](C)NS(=O)(=O)c1cc(Cl)cc(Cl)c1` [Compound 554], with 116%; and `CCCCCCCCCCS(=O)(=O)N[C@H](C)c1nnc(Oc2cccc(N3CCN(C)CC3)c2)n1CC` [Compound 628], with 64.4%. Consider `CCn1c(Oc2cccc(N3CCN(C)CC3)c2)nnc1[C@@H](C)NS(=O)(=O)c1ccc(-c2csnn2)s1` [Compound 538], for which the inhibition at 10 µM stood at 97.1%. On to `CCn1c(Oc2ccc3cc[nH]c3c2)nnc1[C@@H](C)NS(=O)(=O)c1cccc(OC(F)F)c1` [Compound 435], for which the inhibition at 10 µM worked out at 94.6%.

With `CCn1c(Oc2ccc3cc[nH]c3c2)nnc1[C@@H](C)NS(=O)(=O)c1ccc(Br)cc1F` [Compound 414], the inhibition at 10 µM worked out at 92.5%.

For `CCn1c(Oc2cccc(N3CCN(C)CC3)c2)nnc1[C@@H](C)NS(=O)(=O)c1c(F)cccc1F` [Compound 590], the inhibition at 10 µM turned out to be 62.3%. For the compound `CCn1c(Oc2cccc(N3CCN(C)CC3)c2)nnc1[C@@H](C)NS(=O)(=O)c1c(C)noc1C` [Compound 541], the inhibition at 10 µM was 65.5%. With `CCn1c(Oc2cccc(N3CCN(C)CC3)c2)nnc1[C@@H](C)NS(=O)(=O)c1ccccc1C#N` [Compound 506], the inhibition at 10 µM came out at 83.2%. Still for that read-out and setting: the same measure for `CCn1c(Oc2cccc(N3CCN(C)CC3)c2)nnc1[C@@H](C)NS(=O)(=O)c1ccc(-c2ccno2)s1` [Compound 598]: 89.5%. For the compound `CCn1c(Oc2cccc(N3CCN(C)CC3)c2)nnc1[C@@H](C)NS(=O)(=O)c1cccc(C)c1` [Compound 534], the inhibition at 10 µM amounted to 101%. For the compound `CCn1c(Oc2cccc(N3CCN(C)CC3)c2)nnc1[C@@H](C)NS(=O)(=O)c1cccc(Br)c1` [Compound 503], the inhibition at 10 µM was found to be 116%. As to `CCn1c(Oc2ccc3cc[nH]c3c2)nnc1[C@@H](C)NS(=O)(=O)c1ccc(C#N)cc1` [Compound 395], the inhibition at 10 µM is 79.1%. For `CCn1c(Oc2cccc(N3CCN(C)CC3)c2)nnc1[C@@H](C)NS(=O)(=O)c1ccc2nsnc2c1` [Compound 633], the inhibition at 10 µM was determined as 111%.

Consider `CCc1ccc(OC)c(S(=O)(=O)N[C@H](C)c2nnc(Oc3cccc(N4CCN(C)CC4)c3)n2CC)c1` [Compound 652], for which the inhibition at 10 µM worked out at 91.9%. Still for that read-out and setting: the same measure for `CCn1c(Oc2cccc(N3CCN(C)CC3)c2)nnc1[C@@H](C)NS(=O)(=O)c1ccc(C)c(C)c1` [Compound 619]: 114%; for `CCn1c(Oc2cccc(N3CCN(C)CC3)c2)nnc1[C@@H](C)NS(=O)(=O)c1c(C(C)C)cc(C(C)C)cc1C(C)C` [Compound 527]: 52.1%; for `CCn1c(Oc2cccc(N3CCN(C)CC3)c2)nnc1[C@@H](C)NS(=O)(=O)c1ccc(S(C)(=O)=O)cc1` [Compound 520]: 69.9%.

For `CCn1c(Oc2cccc(N3CCN(C)CC3)c2)nnc1[C@@H](C)NS(=O)(=O)c1c(Cl)cc(Cl)cc1Cl` [Compound 566], the inhibition at 10 µM is 88.7%. Regarding `CCn1c(Oc2cccc(N3CCN(C)CC3)c2)nnc1[C@@H](C)NS(=O)(=O)c1ccccc1Br` [Compound 501], the inhibition at 10 µM stood at 61.7%. In the case of `CCn1c(Oc2cccc(N3CCN(C)CC3)c2)nnc1[C@@H](C)NS(=O)(=O)c1cccc(Cl)c1Cl` [Compound 550], the inhibition at 10 µM is 104%. For the compound `CCn1c(Oc2cccc(N3CCN(C)CC3)c2)nnc1[C@@H](C)NS(=O)(=O)c1ccc2oc(=O)ccc2c1` [Compound 679], the inhibition at 10 µM was 104%.

On to `CCn1c(Oc2cccc(N3CCN(C)CC3)c2)nnc1[C@@H](C)NS(=O)(=O)c1ccc2c(c1)CCC(C)(C)O2` [Compound 673], for which the inhibition at 10 µM was 62%.

The test is the same for the next values; noted with them: test compound at 10 μM; inhibition of [33P]-S1P binding to the membrane fraction of HEK-293 cells expressing human Edg-1 (S1P1).
On to `CCn1c(Oc2ccc(F)cc2)nnc1[C@@H](C)NS(=O)(=O)c1ccc(OC)cc1` [Compound 175, N-[(R)-1-[4-Ethyl-5-(4-fluorophenoxy)-4H-[1,2,4]triazol-3-yl]-ethyl]-4-methoxybenzenesulfonamide], for which the inhibition at 10 µM came to 103%. Consider `CCn1c(Oc2ccc(F)cc2)nnc1[C@@H](C)NS(=O)(=O)c1cc(Cl)ccc1Cl` [Compound 168], for which the inhibition at 10 µM came out at 68.4%. For the compound `CCn1c(Oc2ccc3cc[nH]c3c2)nnc1[C@@H](C)NS(=O)(=O)c1ccc(-c2csnn2)s1` [Compound 368], the inhibition at 10 µM is 60.5%. As for `CCn1c(Oc2ccc(F)cc2)nnc1[C@@H](C)NS(=O)(=O)c1ccc(Br)c(C(F)(F)F)c1` [Compound 318], the inhibition at 10 µM came to 78.9%. With `CCn1c(Nc2ccc(C)cc2)nnc1[C@@H](C)NS(=O)(=O)c1ccc(Cl)c(Cl)c1` [Compound 61, N-[(1R)-1-(4-Ethyl-5(4-methylphenylamino)-4H-[1,2,4]triazol-3-yl)ethyl]3,4-dichlorobenzenesulfonamide], the inhibition at 10 µM was determined as 102%. Regarding `CCn1c(Oc2ccc(F)cc2)nnc1[C@@H](C)NS(=O)(=O)c1ccc(Cl)cc1` [Compound 162], the inhibition at 10 µM came to 109%. As for `CCn1c(Oc2ccc3cc[nH]c3c2)nnc1[C@@H](C)NS(=O)(=O)c1c(C)cc(OC)c(C)c1C` [Compound 388], the inhibition at 10 µM was found to be 65.8%. Still for that read-out and setting: then `CCn1c(Oc2ccc(F)cc2)nnc1[C@@H](C)NS(=O)(=O)c1cc(C(F)(F)F)ccc1Cl` [Compound 251], with 59%; and `CCn1c(Oc2ccc3cc[nH]c3c2)nnc1[C@@H](C)NS(=O)(=O)c1cccc(OC)c1` [Compound 386], with 84%. As for `CCn1c(Oc2ccc(F)cc2)nnc1[C@@H](C)NS(=O)(=O)c1ccc(-c2csnn2)s1` [Compound 196], the inhibition at 10 µM is 65.6%. On the same count and under the same terms, then `CCn1c(Oc2ccc(F)cc2)nnc1[C@@H](C)NS(=O)(=O)c1cc(F)ccc1C` [Compound 219], with 70.8%; and `CCn1c(Oc2ccc(F)cc2)nnc1[C@@H](C)NS(=O)(=O)c1cc(F)c(Cl)cc1F` [Compound 243], with 90%. Turning to `CCn1c(Oc2ccc(F)cc2)nnc1C(C)(C)NS(=O)(=O)c1c(C)c(C)cc(C)c1C` [Compound 208], the inhibition at 10 µM came to 80.2%. Take `CCn1c(Oc2ccc(F)cc2)nnc1[C@@H](C)NS(=O)(=O)c1cc(Cl)c(F)cc1F` [Compound 245]: the inhibition at 10 µM was 89.3%.

Regarding `CCn1c(Oc2ccc3cc[nH]c3c2)nnc1[C@@H](C)NS(=O)(=O)c1c(C)c(C)cc(C)c1C` [Compound 378], the inhibition at 10 µM stood at 71.6%. Same read-out and setting: then `CCn1c(Oc2ccc(F)cc2)nnc1[C@@H](C)NS(=O)(=O)c1cc(C)c(Cl)cc1C` [Compound 167], with 113%. The same measure, in the same setting: the same measure for `CCn1c(Oc2ccc3cc[nH]c3c2)nnc1[C@@H](C)NS(=O)(=O)c1ccc(S(C)(=O)=O)cc1` [Compound 350]: 75%; for `CCn1c(Oc2ccc3cc[nH]c3c2)nnc1[C@@H](C)NS(=O)(=O)c1ccc(Br)c(Br)c1` [Compound 392]: 73.6%. On the same count and under the same terms, the same measure for `CCn1c(Cc2ccc(C)cc2)nnc1[C@@H](C)NS(=O)(=O)c1ccc(Cl)c(Cl)c1` [Compound 56, 3,4-Dichloro-N-[(R)-1-[4-ethyl-5(4-methylbenzyl)-4H-[1,2,4]triazol-3-yl]-ethyl]-benzenesulfonamide]: 88.3%. `CCn1c(Oc2ccc(F)cc2)nnc1[C@@H](C)NS(=O)(=O)c1cccc(F)c1` [Compound 252]: the inhibition at 10 µM worked out at 82.8%. Take `CCn1c(Oc2ccc3cc[nH]c3c2)nnc1[C@@H](C)NS(=O)(=O)c1ccc(Cl)cc1` [Compound 335]: the inhibition at 10 µM amounted to 106%. Same read-out and setting: the same measure for `CCn1c(Oc2ccc3cc[nH]c3c2)nnc1[C@@H](C)NS(=O)(=O)c1ccccc1` [Compound 328]: 85.2%.
